Results from PubChem BioAssay (NCI).
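Results reflect a 48-hour exposure of cells in 96-well plates to compound at five concentrations. At the TGI there is no net growth.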

Experiments:
Assay in all cases: NCI anticancer screen, dose series, 48 h
[1] = system: 786-0 renal
[2] = system: A498 renal
[3] = system: A549 NSCLC
[4] = system: ACHN renal
[5] = system: CAKI-1 renal
[6] = system: CCRF-CEM leukemia
[7] = system: COLO 205 colon
[8] = system: DLD-1 colon
[9] = system: DMS 114 small cell lung
[10] = system: DMS 273 small cell lung
[11] = system: EKVX NSCLC
[12] = system: HCC-2998 colon
[13] = system: HCT-116 colon
[14] = system: HCT-15 colon
[15] = system: HL-60(TB) leukemia
[16] = system: HOP-18 NSCLC
[17] = system: HOP-92 NSCLC
[18] = system: HT29 colon
[19] = system: IGROV1 ovarian
[20] = system: K-562 leukemia
[21] = system: KM12 colon
[22] = system: KM20L2 colon
[23] = system: LXFL 529 NSCLC
[24] = system: M14 melanoma
[25] = system: M19-MEL melanoma
[26] = system: MALME-3M melanoma
[27] = system: MOLT-4 leukemia
[28] = system: NCI-H226 lung
[29] = system: NCI-H23 lung
[30] = system: NCI-H460 lung
[31] = system: NCI-H522 lung
[32] = system: OVCAR-3 ovarian
[33] = system: OVCAR-4 ovarian
[34] = system: OVCAR-8 ovarian
[35] = system: RPMI-8226 leukemia
[36] = system: RXF 393 renal
[37] = system: SF-268 CNS
[38] = system: SF-295 CNS
[39] = system: SF-539 CNS
[40] = system: SK-MEL-2 melanoma
[41] = system: SK-MEL-28 melanoma
[42] = system: SK-MEL-5 melanoma
[43] = system: SK-OV-3 ovarian
[44] = system: SN12C renal
[45] = system: SNB-19 CNS
[46] = system: SNB-75 CNS
[47] = system: SR leukemia
[48] = system: SW-620 colon
[49] = system: TK-10 renal
[50] = system: U251 CNS
[51] = system: UO-31 renal
[52] = system: XF 498 CNS
[53] = system: HOP-62 NSCLC
[54] = system: LOX IMVI melanoma
[55] = system: OVCAR-5 ovarian
[56] = system: SNB-78 CNS
[57] = system: UACC-257 melanoma
[58] = system: UACC-62 melanoma

Measured: TGI

CN(C)N=Nc1ccccc1
not listed: [53] | [54] | [55] | [56] | [57] | [58]
> 100 µM: all other assays above

COc1ccc(/C=C2\C(=O)N(C(=O)c3ccc(NC(C)=O)cc3)N=C2C)cc1
not listed: [2] | [8] | [17] | [19] | [22] | [23] | [36] | [43] | [50] | [58]
> 100 µM: all other assays above

Cc1cc(O)c(C(=O)O)c2c1C(=O)c1c(O)c(OCC(O)C(O)C(O)C(O)CO)c(O)c(O)c1C2=O (configuration not stated) (tested in a mixture with another compound)
not listed: [4] | [10] | [13] | [15] | [30] | [47]
> 100 µM: all other assays above
